Test results published in US20220265625A1, “COMPOSITIONS AND METHODS USING TRIGONELLINE AND MINERALS FOR PREVENTING OR TREATING CONDITIONS OR DISORDERS IN SKELETAL MUSCLE” (SOCIETE DES PRODUITS NESTLE S.A., priority 2019, published 2022).

Experiments:
Human primary myoblasts = assay: NAD+ colorimetric quantification in differentiated human primary myoblasts; assay type: cell-based; settings: 16h, different doses
Procedure: After one day, the differentiation is induced by a medium change for 4 days. Cells were treated with synthetic trigonelline monohydrate (FIG. 4A) or with Fenugreek seed extract enriched in trigonelline containing 40.45% trigonelline (FIG. 4B) for 16h at difference doses. NAD+was measured using colorimetric NAD+quantification assay (Biovision NAD+/NADH Quantitation Colorimetric Kit #k337-100).

C57BL/6JRj male mice = assay: Liver NAD+ after oral gavage in mice; assay type: in vivo; settings: equimolar of 300mg/kg trigonelline, 120 minutes
Procedure: 10 weeks C57BL/6JRj male mice received trigonelline (sigma #T5509) or fenugreek seed extract enriched in trigonelline (40.45% trigonelline) by oral gavage (equimolar of 300mg/kg trigonelline, n=8/group). After 120 minutes treatment, the liver was harvested and flash frozen in liquid nitrogen. NAD+was measured in liver using an enzymatic method adapted from Dall, M., et al., Mol Cell Endocrinol, 2018. 473: p. 245-256.

[1] = test system: Human Skeletal Muscle Myotubes (HSMM); settings: 6h
Procedure: Human primary myoblasts from two different donors were seeded in 6 well plates at a density of 200′000 cells per well in skeletal muscle growth medium (SKM-M, AMSbio). After one day, the differentiation was induced by a medium change for 4 days using differentiation culture medium
(Gibco No. 31330-028). Cells were treated with isotopically labelled trigonelline (^13C carbonyl; 3^2H on methyl) for 6h.
Cell extracts were separated on a Vanquish UHPLC +focused LC system (Thermo Scientific) with a hydrophilic liquid chromatography (HILIC) iHILIC-Fusion(P) column (Hilicon) carrying the dimensions 150 x 2.1 mm, 5 pm and a guard column (iHILIC-fusion(P), Hilicon) in front. The separation of metabolites was achieved by applying a linear solvent gradient in normal phase at 0.25 mL/min flow rate and 35° C. of temperature. As mobile phase, solvent A was water with 10 mM ammonium acetate and 0.04% (v/v) ammonium hydroxide, pH ˜9.3, and solvent B was acetonitrile.
The eluting metabolites were analyzed with an Orbitrap Fusion Lumos mass spectrometer (Thermo Scientific) with a heated electrospray ionization (H-ESI) source in positive and negative mode at a resolution of 60,000 at m/z of 200. Instrument control and data analysis were conducted using Xcalibur (Thermo Scientific).

C. elegans [2] = settings: 1mM, chronic exposure from Day 1 adulthood
Procedure: Worm lifespan tests were performed using about 100 animals per condition and scored manually every other day. Trigonelline treatment and experimental measurements were started at Day 1 of wild type N2 worm adulthood, in a regimen of chronic exposure till experiments termination.

C. elegans [3] = settings: 1 mM
Procedure: C. elegans mobility test was performed using the Movement Tracker software (Mouchiroud, L. et al. Curr Protoc Neurosci 77, 8.37.1-8.37.21 (2016)). The experiments were repeated at least twice. Trigonelline treatment and experimental measurements were started at Day 1 of wild type N2 worm adulthood, in a regimen of chronic exposure till experiments termination.

C. elegans [4] = settings: 1 mM, day 8 and day 11 old worms
From the text: 45 to 60 worms per condition were manually scored for mobility after poking. Worms that were unable to respond to any repeated stimulation were scored as dead. […] Trigonelline treatment and experimental measurements were started at Day 1 of wild type N2 worm adulthood, in a regimen of chronic exposure til experiments termination.

[5] = test system: RW1596 (myo-3p::GFP) worms; settings: 1mM trigonelline chloride, 11 day old worms
Procedure: RW1596 (myo-3p::GFP) worms were collected at Day 1 (young adults) and at Day 11 (aged animals) for muscle integrity assessment. Worms were immobilized with tetramisole and analyzed by confocal microscopy, to assess the muscle fibers morphology shown by GFP fluorescence imaging. Trigonelline treatment with 1mM trigonelline chloride and experimental measurements were started at Day 1 of wild type N2 worm adulthood, in a regimen of chronic exposure till experiments termination.

C. elegans [6] = settings: 1mM trigonelline chloride, day 8 old worms
Procedure: Absolute quantification of the mtDNA copy number in wild type N2 worms was performed by real-time PCR. Relative values for nduo-1, and act-1 were compared within each sample to generate a ratio representing the relative level of mitochondrial DNA per nuclear genome. The average of at least two technical repeats was used for each biological data point. Each experiment was performed on at least ten independent biological samples (individual worms). Trigonelline treatment with 1mM trigonelline chloride and experimental measurements were started at Day 1 of wild type N2 worm adulthood, in a regimen of chronic exposure till experiments termination.

Q: Which “NAD+ content compared to the control” value (Human primary myoblasts) does the source give for `C[n+]1cccc(C(=O)O)c1.[OH-]` [chemically synthesized trigonelline] here?
A: significant increase

Q: And the “NAD+ content in the liver compared to the control” value (C57BL/6JRj male mice)?
A: significant increase

Q: How did the “relative abundance of labelled NAD+(M+1) (FIG. 2B)” value ([1]; labelled trigonelline 500pm, vs naturally occurring NAD+ in control) turn out when `[2H]C([2H])([2H])[n+]1cccc([13C](=O)[O-])c1` [labelled trigonelline, reference compound] was run?
A: increase

Q: How did the increase in lifespan (C. elegans [2]) turn out when `C[n+]1cccc(C(=O)O)c1` [trigonelline chloride] was run?
A: 21%

Q: And the “distance travelled during spontaneous mobility assay vs control” value (C. elegans [3]; advanced aging phase)?
A: significantly increased

Q: And the “mean speed during spontaneous mobility assay vs control” value (C. elegans [3]; from day 1 adulthood)?
A: increased the mean speed

Q: And the “stimulated mobility score (worms responsive to a physical stimulus)” value (C. elegans [4])?
A: more responsive to a physical stimulus than the control

Q: For `C[n+]1cccc(C(=O)[O-])c1` [trigonelline, 1-methylpyridin-1-ium-3-carboxylate], which “NAD+ relative concentration vs control (FIG. 2A)” value ([1]; HSMM from 2 donors, 500pm, LC-MS) is on record?
A: enhancement

Q: And the “myofibrillar structure (GFP-tagged myosin) vs age matched control” value [5]?
A: improved more organized myofibrillar structure

Q: And the “mitochondrial expression relative to nuclear expression (mt/nDNA, nduo-1/act-1)” value (C. elegans [6])?
A: higher than in the control group
